What follows are molecules tested against T1, hCB1 (Homo sapiens, UniProt P21554) (assay: Agonist-induced GTP binding (GTPγ35S) assay at CB1, Example 8). Conditions: IC50 at CB1, determined as described in Example 8; read-out: IC50.
T1 construct: made in house; host or cells: Sf9 insect cells (baculovirus), P2 membranes
Format: biochemical
How it was run: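 Antagonism read as inhibition of 1 nM CP55,940-stimulated GTPγ35S ([…]) binding, compounds at 10^−10 to 10^−5 M. Baculovirus-infected Sf9 membranes bearing hCB1 plus G-protein subunits, 60 min room-temperature incubation with 5 μM GDP. Filtration and scintillation counting; data as percent over basal.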

T1 sequence (P21554 whole entry): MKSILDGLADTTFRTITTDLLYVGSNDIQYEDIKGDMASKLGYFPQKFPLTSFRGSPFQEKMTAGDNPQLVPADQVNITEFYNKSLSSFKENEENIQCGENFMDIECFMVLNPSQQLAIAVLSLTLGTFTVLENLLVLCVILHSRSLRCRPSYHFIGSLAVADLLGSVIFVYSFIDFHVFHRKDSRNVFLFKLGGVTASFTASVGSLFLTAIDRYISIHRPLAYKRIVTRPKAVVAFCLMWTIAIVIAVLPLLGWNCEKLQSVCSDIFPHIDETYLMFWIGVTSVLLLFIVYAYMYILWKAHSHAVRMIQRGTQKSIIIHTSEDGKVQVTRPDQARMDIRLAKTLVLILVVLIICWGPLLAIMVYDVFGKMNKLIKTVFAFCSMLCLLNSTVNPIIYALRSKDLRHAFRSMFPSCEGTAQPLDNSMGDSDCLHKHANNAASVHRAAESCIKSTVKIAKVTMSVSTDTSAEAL

Row | IC50 [µM] | SMILES
1 | < 2 | COC(=O)c1cccc(NC(=O)Nc2ccc(OC(F)F)cc2)c1 [Compound 679, methyl 3-[({[4-(difluoromethoxy)phenyl]amino}carbonyl)amino]benzoate]
2 | < 2 | CCc1ccc(NC(=O)Nc2ccc(C(=O)OC(C)C)cc2)cc1 [Compound 502, isopropyl 4-({[(4-ethylphenyl)amino]carbonyl}amino)benzoate]
3 | < 2 | Cc1ccc(NC(=O)Nc2ccccc2)cc1Cl [Compound 435, 1-(3-chloro-4-methylphenyl)-3-phenylurea]
4 | < 2 | COc1ccc(NC(=O)Nc2cccc(OC(F)F)c2)cc1 [Compound 554, 1-[3-(difluoromethoxy)phenyl]-3-(4-methoxyphenyl)urea]
5 | < 2 | Cc1cc(NC(=O)Nc2ccc(OC(C)C)cc2)ccc1F [Compound 693, 1-(4-fluoro-3-methylphenyl)-3-(4-isopropoxyphenyl)urea]
6 | < 2 | CCOc1cccc(NC(=O)Nc2ccc(Cl)cc2)c1 [Compound 386, 1-(4-chlorophenyl)-3-(3-ethoxyphenyl)urea]
7 | < 2 | CCOc1ccc(NC(=O)Nc2cccc(Cl)c2)cc1 [Compound 389, 1-(3-chlorophenyl)-3-(4-ethoxyphenyl)urea]
8 | < 2 | CC(=O)c1cccc(NC(=O)Nc2ccc(C(=O)OC(C)C)cc2)c1 [Compound 513, isopropyl 4-({[(3-acetylphenyl)amino]carbonyl}amino)benzoate]
9 | < 2 | CCOc1ccc(NC(=O)Nc2cccc(OCC)c2)cc1 [Compound 543, 1-(3-ethoxyphenyl)-3-(4-ethoxyphenyl)urea]
10 | < 2 | CCCc1ccc(NC(=O)Nc2cccc(C(C)=O)c2)cc1 [Compound 351, 1-(3-acetylphenyl)-3-(4-propylphenyl)urea]
11 | < 2 | COc1cccc(NC(=O)Nc2cccc(OC(C)C)c2)c1 [Compound 548, 1-(3-isopropoxyphenyl)-3-(3-methoxyphenyl)urea]
12 | < 2 | COC(=O)c1ccc(NC(=O)Nc2ccc(C(=O)OC(C)C)cc2)cc1 [Compound 724, isopropyl methyl 4,4′-(carbonyldiimino)dibenzoate]
13 | < 2 | Cc1cccnc1NC(=O)Nc1ccc(OC(F)F)cc1 [Compound 632, 1-[4-(difluoromethoxy)phenyl]-3-(3-methylpyridin-2-yl)urea]
14 | < 2 | CCOC(=O)c1ccc(NC(=O)Nc2ccc(OC(F)F)cc2)cc1 [Compound 583, ethyl 4-[({[4-(difluoromethoxy)phenyl]amino}carbonyl)amino]benzoate]
15 | < 2 | CCOC(=O)c1cccc(NC(=O)Nc2ccc(Cl)c(C)c2)c1 [Compound 771, ethyl 3-({[(4-chloro-3-methylphenyl)amino]carbonyl}amino)benzoate]
16 | < 2 | CC(=O)c1cccc(NC(=O)Nc2ccc(C)c(Cl)c2)c1 [Compound 458, 1-(3-acetylphenyl)-3-(3-chloro-4-methylphenyl)urea]

Row | IC50 [µM] | SMILES
17 | < 2 | CCCOc1ccc(NC(=O)Nc2cccc(F)c2)cc1 [Compound 361, 1-(3-fluorophenyl)-3-(4-propoxyphenyl)urea]
18 | < 2 | CCc1ccc(NC(=O)Nc2ccc(C(C)C)cc2)cc1 [Compound 332, 1-(4-ethylphenyl)-3-(4-isopropylphenyl)urea]
19 | < 2 | CCC(=O)c1ccc(NC(=O)Nc2cc(F)cc(F)c2)cc1 [Compound 744, 1-(3,5-difluorophenyl)-3-(4-propionylphenyl)urea]
20 | < 2 | CCCOc1ccc(NC(=O)Nc2ccccc2OC(F)F)cc1 [Compound 534, 1-[2-(difluoromethoxy)phenyl]-3-(4-propoxyphenyl)urea]
21 | < 2 | CCOC(=O)c1ccc(NC(=O)Nc2ccc(F)cc2C(F)(F)F)cc1 [Compound 778, ethyl 4-[({[4-fluoro-2-(trifluoromethyl)phenyl]amino}carbonyl)amino]benzoate]
22 | < 2 | COc1cccc(NC(=O)Nc2ccc([N+](=O)[O-])cc2)c1 [Compound 556, 1-(3-methoxyphenyl)-3-(4-nitrophenyl)urea]
23 | < 2 | CCOc1cccc(NC(=O)Nc2ccc(C(=O)OC)cc2)c1 [Compound 660, methyl 4-({[(3-ethoxyphenyl)amino]carbonyl}amino)benzoate]
24 | < 2 | CC(C)(C)c1ccccc1NC(=O)Nc1ccc(OC(F)F)cc1 [Compound 604, 1-(2-tert-butylphenyl)-3-[4-(difluoromethoxy)phenyl]urea]
25 | < 2 | CCOc1ccc(NC(=O)Nc2ccc(Cl)nc2)cc1 [Compound 629, 1-(6-chloropyridin-3-yl)-3-(4-ethoxyphenyl)urea]
26 | < 2 | CC(C)Oc1ccc(NC(=O)Nc2ccc([N+](=O)[O-])cc2)cc1 [Compound 564, 1-(4-isopropoxyphenyl)-3-(4-nitrophenyl)urea]
27 | < 2 | COCc1ccc(NC(=O)Nc2cccc(Cl)c2)cc1 [Compound 394, 1-(3-chlorophenyl)-3-[4-(methoxymethyl)phenyl]urea]
28 | < 2 | CCC(=O)c1ccc(NC(=O)Nc2ccc(C)c(C)c2)cc1 [Compound 733, 1-(3,4-dimethylphenyl)-3-(4-propionylphenyl)urea]
29 | < 2 | CCOC(=O)c1ccc(NC(=O)Nc2cccc(OC(F)F)c2)cc1 [Compound 678, ethyl 4-[({[3-(difluoromethoxy)phenyl]amino}carbonyl)amino]benzoate]
30 | < 2 | COCc1ccc(NC(=O)Nc2ccc(C)c(F)c2)cc1 [Compound 685, 1-(3-fluoro-4-methylphenyl)-3-[4-(methoxymethyl)phenyl]urea]
31 | < 2 | COc1cccc(NC(=O)Nc2ccc(C(C)C)cc2)c1 [Compound 521, 1-(4-isopropylphenyl)-3-(3-methoxyphenyl)urea]
32 | < 2 | CCc1cccc(NC(=O)Nc2ccc(C(=O)OC)cc2)c1 [Compound 494, methyl 4-({[(3-ethylphenyl)amino]carbonyl}amino)benzoate]

Same assay, conditions: Table I; IC50 at CB1, GTP binding with 1 nM CP55,940; read-out: IC50

Row | IC50 [µM] | SMILES
33 | < 2 | Cc1ccc(NC(=O)Nc2cccc(OC(C)C)c2)cc1 [Compound 38, N-(3-isopropoxyphenyl)-N′-(4-methylphenyl)urea]
34 | < 2 | CCc1ccc(NC(=O)Nc2ccc(C#N)cc2)cc1 [Compound 27, N-(4-cyanophenyl)-N′-(4-ethylphenyl)urea]
35 | < 2 | O=C(Nc1ccccc1)Nc1ccc(OC(F)F)cc1 [Compound 48, N-[4-(difluoromethoxy)phenyl]-N′-phenylurea]
36 | < 2 | CCc1cccc(NC(=O)Nc2ccc(OC(F)F)cc2)c1 [Compound 11, N-[4-(difluoromethoxy)phenyl]-N′-(3-ethylphenyl)urea]
37 | < 2 | CCCOc1ccc(NC(=O)Nc2ccccc2)cc1 [Compound 44, N-phenyl-N′-(4-propoxyphenyl)urea]

Same assay, conditions: Table II; IC50 at CB1, GTP binding with 1 nM CP55,940; read-out: IC50

Row | IC50 [µM] | SMILES
38 | < 2 | CCc1cccc(NC(=O)Nc2ccc(C)cc2)c1 [Compound 174, N-(3-ethylphenyl)-N′-(4-methylphenyl)urea]
39 | < 2 | O=C(Nc1ccc(OC(F)F)cc1)Nc1ccc(N2CCCC2)cc1 [Compound 104, N-[4-(difluoromethoxy)phenyl]-N′-(4-pyrrolidin-1-ylphenyl)urea]
40 | < 2 | O=C(Nc1ccc(OC(F)F)cc1)Nc1ccc2c(c1)OCCO2 [Compound 88, N-[4-(difluoromethoxy)phenyl]-N′-(2,3-dihydro-1,4-benzodioxin-6-yl)urea]
41 | < 2 | O=C(Nc1ccc(OC(F)F)cc1)Nc1cccc(-c2cncc3ccccc23)c1 [Compound 68, N-[4-(difluoromethoxy)phenyl]-N′-(3-isoquinolin-4-ylphenyl)urea]
42 | < 2 | O=C(Nc1ccc(OC(F)F)cc1)Nc1cccnc1Cl [Compound 149, N-(2-chloropyridin-3-yl)-N′-[4-(difluoromethoxy)phenyl]urea]
43 | < 2 | CCCOc1ccc(NC(=O)Nc2cccc(C(C)=O)c2)cc1 [Compound 274, N-(3-acetylphenyl)-N′-(4-propoxyphenyl)urea]
44 | < 2 | CC(=O)c1ccc(NC(=O)Nc2cccc(Cl)c2)cc1 [Compound 191, N-(4-acetylphenyl)-N′-(3-chlorophenyl)urea]
45 | < 2 | O=C(Nc1cccc(OC(F)F)c1)Nc1cccc(OC(F)(F)F)c1 [Compound 145, N-{3-(difluoromethoxy)phenyl]-N′-[3-(trifluoromethoxy)phenyl]urea]
46 | < 2 | CCCc1ccc(NC(=O)Nc2ccc(F)cc2)cc1 [Compound 178, N-(4-fluorophenyl)-N′-(4-propylphenyl)urea]
47 | < 2 | Cc1ccc2cc(NC(=O)Nc3ccc(OC(F)F)cc3)ccc2n1 [Compound 142, N-[4-(difluoromethoxy)phenyl]-N′-(2-methylquinolin-6-yl)urea]
48 | < 2 | Cc1n[nH]cc1-c1cccc(NC(=O)Nc2ccc(OC(F)F)cc2)c1 [Compound 116, N-[4-(difluoromethoxy)phenyl]-N′-[3-(3-methyl-1H-pyrazol-4-yl)phenyl]urea]
49 | < 2 | CC(=O)c1cccc(NC(=O)Nc2cccc(OC(C)C)c2)c1 [Compound 277, N-(3-acetylphenyl)-N′-(3-isopropoxyphenyl)urea]
50 | < 2 | O=C(Nc1ccc(OC(F)F)cc1)Nc1ccc(S(=O)(=O)N2CCCC2)cc1 [Compound 111, N-[4-(difluoromethoxy)phenyl]-N′-[4-(pyrrolidin-1-ylsulfonyl)phenyl]urea]
51 | < 2 | CCCc1ccc(NC(=O)Nc2cccc(C#N)c2)cc1 [Compound 198, N-(3-cyanophenyl)-N′-(4-propylphenyl)urea]
52 | < 2 | CCOc1cccc(NC(=O)Nc2ccc(C)cc2)c1 [Compound 202, N-(3-ethoxyphenyl)-N′-(4-methylphenyl)urea]
53 | < 2 | Cc1ccc(NC(=O)Nc2ccc(OC(C)C)cc2)cc1 [Compound 214, N-(4-isopropoxyphenyl)-N′-(4-methylphenyl)urea]
